Data as given in patent US9012159B2, “Cell based screening assays for the triglyceride synthesis pathway” (Janssen Research & Development, LLC, priority 2009, dated 2015).

Experiments:
[1] = system: HUH7 cells; experiment: Stable isotope (13C18-oleic acid) labeling of triglyceride synthesis with LC-MS detection in HUH7 cells; type: cell-based, human; settings: for levels of 13C18-triolein relative to those of the control: 10 μM compound, about 90 minutes with 13C18-oleic acid, % of control (FIG. 3)
Experimental: (§1) The 3T3-L1 mouse preadipocyte cells were maintained in Dulbecco's Modified Eagles Medium (DMEM) with 10% fetal bovine serum (FBS). Cells were seeded in 96-well plates. Two days post confluency, the medium was changed to induction medium with IBMX, insulin, and dexamethasone (Adipolysis kit, Cayman Chemical Company). Three days after induction, the medium was changed to insulin medium (Adipolysis kit, Cayman Chemical Company). Five days after induction, the medium was replaced with fresh insulin medium for 2 days. Human hepatoma cell line HUH7 was maintained in DMEM with 10% FBS, 4.5 g/L D-glucose. Rat hepatoma cell line FU5AH was maintained in Minimum Essential Medium Eagle (MEM) with 5% FBS. The hepatoma cells were plated in 96 well plates and used at 80% confluence. Human breast cancer cell line MCF7 cells were maintained in DMEM with 10% FBS, 4.5 g/L D-glucose. Human monocytic leukemia cell line THP-1 was maintained in RPMI medium with 10% FBS and used at 5×10^5 cells/ml.
The HUH7 cells or the differentiated 3T3-L1 cells were incubated with DMEM with 10% charcoal-stripped FBS (Gibco) in 5% CO2 at 37° C. for overnight. The FU5AH cells were incubated with MEM with 5% charcoal-stripped FBS in 5% CO2 at 37° C. for overnight. About 100 μl of 300 μM ^13C18-oleic acid (SIGMA) precomplexed with 0.5% fatty acid free BSA (SIGMA) were added to the cell suspension in 5% CO2 at 37° C. for 0, 30, 60, 120 and 180 minutes. Then the cells were washed once with phosphate buffered saline and extracted with 100 μl of isopropyl alcohol. After incubating at room temperature for 10 minutes, the extraction was transferred to a glass vial and detected for labeled lipid molecules using the LC-MS system.
The LC-MS detection was conducted with Agilent 1100 Liquid Chromatographic system (Agilent Technologies, Palo Alto, Calif.) interfaced with a Micromass triple-quadrupole Quattro Micro mass spectrophotometer (Waters, Milford, Mass.) through a Z-spray electrospray ion source (ESI). Separation of the metabolites was performed on an Eclipse XDB-C8 column (2.1×50 mm, particle size=3.5 μm). Mobile Phase A, 50 mM ammonium formate in isopropanol-water (3:7), and mobile phase B, 10 mM ammonium formate in isopropanol-water (9:1) were used for a gradient elution as following: 20-100% Mobile Phase B for 1 min, hold 100% Mobile Phase B for 4 min, return to 20% Mobile Phase B for 0.1 min, then post run time of 4.5 min. The flow rate was 0.5 ml/min. […]
(§2) For evaluating compounds which modulate activity of DGAT1 or DGAT2, HUH7 or 3T3-L1 cells were preincubated with about 0, 0.03, 0.1, 0.3, 1, 3, or 10 μM Compounds 1 or 2 for about 10 minutes at 37° C. in 100 μl serum free medium with 0.05% DMSO. […] After incubation at 37° C. for about 90 minutes, cells were extracted and detected as described in Example 2.

[2] = system: MCF7 cells; experiment: Stable isotope (13C18-oleic acid) labeling of triglyceride synthesis with LC-MS detection in MCF7 cells; type: cell-based, human; settings: compound 0.1-10 μM (concentration of the result not stated), about 3 hours with 13C18-oleic acid, % of control (FIG. 6)
Experimental: as §1
The LC-MS detection was conducted with Agilent 1100 Liquid Chromatographic system (Agilent Technologies, Palo Alto, Calif.) interfaced with a Micromass triple-quadrupole Quattro Micro mass spectrophotometer (Waters, Milford, Mass.) through a Z-spray electrospray ion source (ESI). […]
Next, the effects of Compound 2 in MCF7 cells were evaluated. […]

[3] = system: differentiated 3T3-L1 cells; experiment: Stable isotope (13C18-oleic acid) labeling of triglyceride synthesis with LC-MS detection in differentiated 3T3-L1 cells; type: cell-based, mouse; settings: differentiated 3T3-L1 cell line
Experimental: as §1, with “The hepatoma cells were plated in 96 well plates and used at 80% confluence. Human breast cancer cell line MCF7 cells were maintained in DMEM with 10% FBS, 4.5 g/L D-glucose. Human monocytic leukemia cell line THP-1 was maintained in RPMI medium with 10% FBS and used at 5×10^5 cells/ml.” left out
The HUH7 cells or the differentiated 3T3-L1 cells were incubated with DMEM with 10% charcoal-stripped FBS (Gibco) in 5% CO2 at 37° C. for overnight. […] After incubating at room temperature for 10 minutes, the extraction was transferred to a glass vial and detected for labeled lipid molecules using the LC-MS system. […]
as §2

Row | Compound | levels of 13C18-triolein relative to those of the control ([1]; HUH7 cell line) | levels of 13C18-triolein relative to those of the control [2] | levels of the newly synthesized 13C18-triolein in the presence of compound ([1]; HUH7 cell line, result in words) | 13C18-oleoyl-diglyceride level ([1]; HUH7 cells incubated with compound (FIG. 5), result in words) | levels of 13C18-triolein relative to those of the control ([3]; about 10 μM compound, about 90 minutes with 13C18-oleic acid, % of control (FIG. 4)) | levels of the newly synthesized 13C18-triolein in the presence of compound ([3]; result in words)
1 | COC(=O)c1[nH]c(=S)n(C(c2ccc(Cl)c(Cl)c2)C2CCCCC2)c1C(=O)OC (stereo not shown) [Compound 2, dimethyl 1-[cyclohexyl(3,4-dichlorophenyl)methyl]-2-thioxo-2,3-dihydro-1H-imidazole-4,5-dicarboxylate] | about 75% | about 80% | – | – | – | –
2 | COc1ccc(CC(=O)Nc2ccc(N3CCN(C(=O)Nc4c(Cl)cc(CN5CCCC5)cc4Cl)CC3)cc2)cc1 [Compound 1, N-[2,6-Dichloro-4-(pyrrolidin-1-ylmethyl)phenyl]-4-(4-{[(4-methoxyphenyl)acetyl]amino}phenyl)piperazine-1-carboxamide] | about 30% | – | reduced levels | transient increase | about 33% | reduced levels
